# Tested on: peach aphid (Myzus persicae)
# Assay: Insecticidal test against peach aphid, infested Chinese cabbage leaves sprayed
# Assay type: in vivo
# Details: peach aphid (Myzus persicae) on Chinese cabbage leaves, sprayed with 500 ppm composition unless otherwise stated, mortality assessed after 3 days
# Summary of the method: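 Aphid-infested Chinese cabbage leaves were sprayed with compound at 500 ppm unless otherwise stated, formulated in acetone/ethanol diluted with water containing 0.05% Synperonic NP8. Mortality was assessed after 3 days.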
row,SMILES,Score (grading of mortality)
1,"CC(c1ccccc1)(C(O)C#N)N1C2CCC1CC(C#N)(c1cncc(Cl)c1)C2 (stereo not drawn) [Compound 192, exo-3-(5-chloropyrid-3-yl)-endo-3-cyano-8-(1-hydroxy-1-cyano-2-phenylprop-2-yl)-8-azabicyclo[3.2.1]octane]",A (A indicates 80-100% mortality)
2,"C#Cc1cncc(C2(C#N)CC3CCC(C2)N3C)c1 (stereo not drawn) [Compound 193, exo-3-(5-ethynylpyrid-3-yl)-endo-3-cyano-8-methyl-8-azabicyclo[3.2.1]octane]",A (A indicates 80-100% mortality)
3,CN1C2CCC1CC(C#N)(c1ccncn1)C2 (centres unmarked) [Compound 194],A (A indicates 80-100% mortality)
4,"C=C(OCC)c1cncc(C2(C#N)CC3CCC(C2)N3C)c1 (stereo not drawn) [Compound 195, exo-3-(5-(1-ethoxyvinyl)pyrid-3-yl)-endo-3-cyano-8-methyl-8-azabicyclo[3.2.1]octane]",A (A indicates 80-100% mortality)
5,CCC(C)(C)N1C2CCC1CC(C#N)(c1cccnc1)C2 (centres unmarked) [Compound 196],A (A indicates 80-100% mortality)
6,"CCOC(=O)C(C)N1C2CCC1CC(C#N)(c1cncc(Cl)c1)C2 (stereo not drawn) [Compound 197, exo-3-(5-chloropyrid-3-yl)-endo-3-cyano-8-(1-(ethoxycarbonyl)ethyl)-8-azabicyclo[3.2.1]octane]",A (A indicates 80-100% mortality)
7,CN1C2CCC1CC(C#N)(c1ncncc1Br)C2 (centres unmarked) [Compound 198],A (A indicates 80-100% mortality)
8,N#CC1(c2cncc(C(F)(F)F)c2)CC2CCC(C1)N2CC(F)(F)F (centres unmarked) [Compound 199],A (A indicates 80-100% mortality)
9,CN1C2CCC1CC(C#N)(c1cc(-c3ccncn3)ncn1)C2 (centres unmarked) [Compound 200],A (A indicates 80-100% mortality)
10,"CC(=O)c1cncc(C2(C#N)CC3CCC(C2)N3C)c1 (stereo not drawn) [Compound 201, exo-3-(5-acetylpyrid-3-yl)-endo-3-cyano-8-methyl-8-azabicyclo[3.2.1]octane]",A (A indicates 80-100% mortality)
11,"CN1C2CCC1CC(C#N)(c1cncc(F)c1)C2 (stereo not drawn) [Compound 202, exo-3-(5-fluoropyrid-3-yl)-endo-3-cyano-8-methyl-8-azabicyclo[3.2.1]octane]",A (A indicates 80-100% mortality)
12,N#CC1(c2cncc(Br)c2)CC2CCC(C1)N2 (centres unmarked) [Compound 203],A (A indicates 80-100% mortality)
13,N#CC1(c2cncc(Br)c2)CC2CCC(C1)N2Cc1ccccc1Cl (centres unmarked) [Compound 204],A (A indicates 80-100% mortality)
14,CC(C)(c1cccc(Cl)c1)N1C2CCC1CC(C#N)(c1cncc(Cl)c1)C2 (centres unmarked) [Compound 205],A (A indicates 80-100% mortality)
15,CN1C2CCC1CC(C#N)(c1cncc(C(C)(C)O)c1)C2 (centres unmarked) [Compound 206],A (A indicates 80-100% mortality)
16,C#CC(C)(C)N1C2CCC1CC(C#N)(c1cncc(Cl)c1)C2 (centres unmarked) [Compound 207],A (A indicates 80-100% mortality)
17,CCOC(=O)N1C2CCC1CC(C#N)(c1cncc(Br)c1)C2 (centres unmarked) [Compound 208],A (A indicates 80-100% mortality)
18,"CC(C)(N1C2CCC1CC(C#N)(c1cncc(Cl)c1)C2)C(F)(F)F (stereo not drawn) [Compound 209, exo-3-(5-chloropyrid-3-yl)-endo-3-cyano-8-(1,1-dimethyl-2,2,2-trifluoroethyl)-8-azabicyclo[3.2.1]octane]",A (A indicates 80-100% mortality)
19,CC(C)CN1C2CCC1CC(C#N)(c1cncc(Br)c1)C2 (centres unmarked) [Compound 210],A (A indicates 80-100% mortality)

row,SMILES,Score (grading of mortality)
1,COc1cncc(C2(C#N)CC3CCC(C2)N3C)n1 (centres unmarked) [Compound 214],A (A indicates 80-100% mortality)
2,N#CC(c1cccc(Cl)c1)N1C2CCC1CC(C#N)(c1cncc(Cl)c1)C2 (centres unmarked) [Compound 215],A (A indicates 80-100% mortality)
3,"C=COC(=O)N1C2CCC1CC(C#N)(c1cncc(-c3ccccc3)c1)C2 (stereo not drawn) [Compound 217, exo-3-(5-phenylpyrid-3-yl)-endo-3-cyano-8-(vinyloxycarbonyl)-8-azabicyclo[3.2.1]octane]",A (A indicates 80-100% mortality)
4,N#CC1(c2cncc(Cl)c2)CC2CCC(C1)N2CCC=C(F)F (centres unmarked) [Compound 218],A (A indicates 80-100% mortality)
5,"N#CC1(c2cncc(-c3ccccc3)c2)CC2CCC(C1)N2 (stereo not drawn) [Compound 220, exo-3-(5-phenylpyrid-3-yl)-endo-3-cyano-8-azabicyclo[3.2.1]octane]",A (A indicates 80-100% mortality)
6,"C=COC(=O)N1C2CCC1CC(C#N)(c1cncc(C)c1)C2 (stereo not drawn) [Compound 221, exo-3-(5-methylpyrid-3-yl)-endo-3-cyano-8-(vinyloxycarbonyl)-8-azabicyclo[3.2.1]octane]",A (A indicates 80-100% mortality)
7,"C=COC(=O)N1C2CCC1CC(C#N)(c1cncc(C(=O)OCC)c1)C2 (stereo not drawn) [Compound 222, exo-3-(5-(ethoxycarbonyl)pyrid-3-yl)-endo-3-cyano-8-(vinyloxycarbonyl)-8-azabicyclo[3.2.1]octane]",C (C indicates less than 40% mortality)
8,"CC(C)(C#N)N1C2CCC1CC(C#N)(c1cncc(Cl)c1)C2 (stereo not drawn) [Compound 223, exo-3-(5-chloropyrid-3-yl)-endo-3-cyano-8-(2-cyanoprop-2-yl)-8-azabicyclo[3.2.1]octane]",C (C indicates less than 40% mortality)
9,CCOC(=O)c1cncc(C2(C#N)CC3CCC(C2)N3)c1 (centres unmarked) [Compound 225],A (A indicates 80-100% mortality)
10,N#CC1(c2cncc(Cl)c2)CC2CCC(C1)N2Cc1cc(C(F)(F)F)cc(C(F)(F)F)c1 (centres unmarked) [Compound 227],A (A indicates 80-100% mortality)
11,N#CC1(c2cncc(Cl)c2)CC2CCC(C1)N2Cc1c(F)cccc1F (centres unmarked) [Compound 228],A (A indicates 80-100% mortality)
12,N#CC1(c2cncc(Cl)c2)CC2CCC(C1)N2Cc1cccc(Oc2ccccc2)c1 (centres unmarked) [Compound 229],A (A indicates 80-100% mortality)
13,N#CC1(c2cncc(Cl)c2)CC2CCC(C1)N2Cc1ccc(F)c(Br)c1 (centres unmarked) [Compound 230],A (A indicates 80-100% mortality)
14,N#CC1(c2cncc(Cl)c2)CC2CCC(C1)N2Cc1cccc(C(=O)c2ccccc2)c1 (centres unmarked) [Compound 231],A (A indicates 80-100% mortality)
15,N#CC1(c2cncc(Cl)c2)CC2CCC(C1)N2Cc1cccc(C(=O)c2c(Cl)cccc2Cl)c1 (centres unmarked) [Compound 232],A (A indicates 80-100% mortality)
16,N#CC1(c2cncc(Cl)c2)CC2CCC(C1)N2Cc1cccc(C(=O)c2c(F)cccc2F)c1 (centres unmarked) [Compound 233],A (A indicates 80-100% mortality)
17,C=CCc1c(F)c(F)c(CN2C3CCC2CC(C#N)(c2cncc(Cl)c2)C3)c(F)c1F (centres unmarked) [Compound 234],A (A indicates 80-100% mortality)
18,N#CC1(c2cncc(Cl)c2)CC2CCC(C1)N2Cc1cccc(OC(F)(F)F)c1 (centres unmarked) [Compound 235],A (A indicates 80-100% mortality)
19,N#CC1(c2cncc(Cl)c2)CC2CCC(C1)N2Cc1cccc2ccccc12 (centres unmarked) [Compound 236],A (A indicates 80-100% mortality)

row,SMILES,Score (grading of mortality)
1,"N#C[C@@]1(c2cncc(Cl)c2)C[C@H]2CC[C@@H](C1)N2Cc1ccccc1 [Compound 237, exo-3-(5-chloropyrid-3-yl)-endo-3-cyano-8-benzyl-8-azabicyclo[3.2.1]octane]",A (A indicates 80-100% mortality)
2,N#CC1(c2cncc(Cl)c2)CC2CCC(C1)N2Cc1ccccc1Br (centres unmarked) [Compound 238],A (A indicates 80-100% mortality)
3,Cc1ccccc1CN1C2CCC1CC(C#N)(c1cncc(Cl)c1)C2 (centres unmarked) [Compound 239],A (A indicates 80-100% mortality)
4,N#CC1(c2cncc(Cl)c2)CC2CCC(C1)N2Cc1cccc(Br)c1 (centres unmarked) [Compound 240],A (A indicates 80-100% mortality)
5,COC(=O)c1cccc(CN2C3CCC2CC(C#N)(c2cncc(Cl)c2)C3)c1 (centres unmarked) [Compound 241],A (A indicates 80-100% mortality)
6,Cc1cccc(CN2C3CCC2CC(C#N)(c2cncc(Cl)c2)C3)c1 (centres unmarked) [Compound 242],A (A indicates 80-100% mortality)
7,N#CC1(c2cncc(Cl)c2)CC2CCC(C1)N2Cc1ccc(Br)cc1 (centres unmarked) [Compound 243],A (A indicates 80-100% mortality)
8,CC(C)(C)C(=O)c1ccc(CN2C3CCC2CC(C#N)(c2cncc(Cl)c2)C3)cc1 (centres unmarked) [Compound 245],A (A indicates 80-100% mortality)
9,CC(C)(C)c1ccc(CN2C3CCC2CC(C#N)(c2cncc(Cl)c2)C3)cc1 (centres unmarked) [Compound 246],A (A indicates 80-100% mortality)
10,CC(C)c1ccc(CN2C3CCC2CC(C#N)(c2cncc(Cl)c2)C3)cc1 (centres unmarked) [Compound 247],A (A indicates 80-100% mortality)
11,Cc1ccc(CN2C3CCC2CC(C#N)(c2cncc(Cl)c2)C3)cc1 (centres unmarked) [Compound 248],A (A indicates 80-100% mortality)
12,N#CC1(c2cncc(Cl)c2)CC2CCC(C1)N2Cc1ccc(F)c(F)c1 (centres unmarked) [Compound 249],A (A indicates 80-100% mortality)
13,N#CC1(c2cncc(Cl)c2)CC2CCC(C1)N2Cc1ccccc1F (centres unmarked) [Compound 250],A (A indicates 80-100% mortality)
14,N#CC1(c2cncc(Cl)c2)CC2CCC(C1)N2Cc1cc(F)cc(Br)c1 (centres unmarked) [Compound 251],A (A indicates 80-100% mortality)
15,N#CC1(c2cncc(Cl)c2)CC2CCC(C1)N2Cc1ccc(F)cc1F (centres unmarked) [Compound 252],A (A indicates 80-100% mortality)
16,N#CC1(c2cncc(Cl)c2)CC2CCC(C1)N2Cc1cccc(F)c1 (centres unmarked) [Compound 253],A (A indicates 80-100% mortality)
17,N#CC1(c2cncc(Cl)c2)CC2CCC(C1)N2Cc1ccc(F)cc1 (centres unmarked) [Compound 254],A (A indicates 80-100% mortality)
18,N#CC1(c2cncc(Cl)c2)CC2CCC(C1)N2Cc1cccc(C(F)(F)F)c1 (centres unmarked) [Compound 255],A (A indicates 80-100% mortality)
